Source: ChEMBL document CHEMBL1157753, “Stereochemical requirements for the mineralocorticoid receptor antagonist activity of dihydropyridines” (J Med Chem, 2010)

How the values were obtained:
[1] = target: T1, Mineralocorticoid receptor (Homo sapiens, UniProt P08235)
T1 sequence (P08235 whole entry): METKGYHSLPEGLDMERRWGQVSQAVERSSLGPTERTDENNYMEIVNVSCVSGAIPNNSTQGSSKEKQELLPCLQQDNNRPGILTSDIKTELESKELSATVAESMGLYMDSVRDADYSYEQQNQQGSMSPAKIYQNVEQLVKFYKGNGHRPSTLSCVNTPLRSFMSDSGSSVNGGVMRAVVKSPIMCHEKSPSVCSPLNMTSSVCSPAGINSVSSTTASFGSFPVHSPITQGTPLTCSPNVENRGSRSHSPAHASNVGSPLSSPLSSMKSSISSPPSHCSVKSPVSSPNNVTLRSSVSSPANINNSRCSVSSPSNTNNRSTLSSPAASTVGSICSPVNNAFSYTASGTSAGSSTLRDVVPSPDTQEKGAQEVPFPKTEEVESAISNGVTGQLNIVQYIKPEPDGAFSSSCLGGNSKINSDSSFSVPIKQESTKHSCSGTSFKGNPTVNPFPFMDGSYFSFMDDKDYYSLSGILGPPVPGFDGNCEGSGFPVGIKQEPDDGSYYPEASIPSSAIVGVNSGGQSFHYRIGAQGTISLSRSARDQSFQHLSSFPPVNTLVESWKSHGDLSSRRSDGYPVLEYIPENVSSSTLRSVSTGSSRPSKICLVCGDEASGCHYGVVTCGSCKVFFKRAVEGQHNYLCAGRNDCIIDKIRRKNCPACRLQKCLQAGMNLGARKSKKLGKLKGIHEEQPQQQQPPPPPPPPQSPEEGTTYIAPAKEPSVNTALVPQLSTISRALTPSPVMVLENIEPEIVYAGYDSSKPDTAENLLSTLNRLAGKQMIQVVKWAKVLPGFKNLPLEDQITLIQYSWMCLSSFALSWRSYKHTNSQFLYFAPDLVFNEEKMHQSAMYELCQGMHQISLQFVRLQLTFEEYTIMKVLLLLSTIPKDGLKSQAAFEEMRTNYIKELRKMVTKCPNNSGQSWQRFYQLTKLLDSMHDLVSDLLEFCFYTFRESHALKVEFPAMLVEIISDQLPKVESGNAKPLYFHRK
Description: Antagonist activity at Gal4-fused mineralocorticoid receptor expressed in human HuH7 cells assessed as inhibition of aldosterone-induced receptor activation by luciferase reporter gene assay

[2] = target: Voltage-gated L-type calcium channel (Rattus norvegicus, UniProt P22002+Q02485+P27732); test: Inhibition of L-type calcium channel in rat A10 cells assessed as inhibition of depolarization-induced increase in calcium flux after 10 mins by FLIPR assay
Glucocorticoid receptor = target: T2, Glucocorticoid receptor (Homo sapiens, UniProt P04150); test: Inhibition of glucocorticoid receptor
T2 sequence (P04150 whole entry): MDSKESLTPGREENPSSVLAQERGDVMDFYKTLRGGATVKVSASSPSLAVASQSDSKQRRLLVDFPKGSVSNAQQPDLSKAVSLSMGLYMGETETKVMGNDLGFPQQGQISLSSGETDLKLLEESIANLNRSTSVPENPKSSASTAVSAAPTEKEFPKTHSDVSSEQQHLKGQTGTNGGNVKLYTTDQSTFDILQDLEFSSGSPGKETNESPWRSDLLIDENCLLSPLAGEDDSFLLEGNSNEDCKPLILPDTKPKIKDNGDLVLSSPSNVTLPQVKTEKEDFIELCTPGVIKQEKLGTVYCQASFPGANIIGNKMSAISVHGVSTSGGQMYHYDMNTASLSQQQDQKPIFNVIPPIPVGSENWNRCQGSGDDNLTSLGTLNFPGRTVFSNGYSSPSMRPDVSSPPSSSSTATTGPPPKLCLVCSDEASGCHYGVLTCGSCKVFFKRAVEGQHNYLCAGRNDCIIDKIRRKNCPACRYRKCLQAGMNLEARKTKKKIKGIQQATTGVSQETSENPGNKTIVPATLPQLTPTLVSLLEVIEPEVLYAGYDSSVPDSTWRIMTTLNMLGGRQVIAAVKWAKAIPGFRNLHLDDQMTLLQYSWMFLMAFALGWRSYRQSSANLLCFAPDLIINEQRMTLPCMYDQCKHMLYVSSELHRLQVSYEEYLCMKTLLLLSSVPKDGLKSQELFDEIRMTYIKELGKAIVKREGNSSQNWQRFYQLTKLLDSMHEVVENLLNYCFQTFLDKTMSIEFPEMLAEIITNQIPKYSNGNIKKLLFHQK

Androgen receptor = target: T3, Androgen receptor (Homo sapiens, UniProt P10275); test: Inhibition of androgen receptor
T3 sequence (P10275 whole entry): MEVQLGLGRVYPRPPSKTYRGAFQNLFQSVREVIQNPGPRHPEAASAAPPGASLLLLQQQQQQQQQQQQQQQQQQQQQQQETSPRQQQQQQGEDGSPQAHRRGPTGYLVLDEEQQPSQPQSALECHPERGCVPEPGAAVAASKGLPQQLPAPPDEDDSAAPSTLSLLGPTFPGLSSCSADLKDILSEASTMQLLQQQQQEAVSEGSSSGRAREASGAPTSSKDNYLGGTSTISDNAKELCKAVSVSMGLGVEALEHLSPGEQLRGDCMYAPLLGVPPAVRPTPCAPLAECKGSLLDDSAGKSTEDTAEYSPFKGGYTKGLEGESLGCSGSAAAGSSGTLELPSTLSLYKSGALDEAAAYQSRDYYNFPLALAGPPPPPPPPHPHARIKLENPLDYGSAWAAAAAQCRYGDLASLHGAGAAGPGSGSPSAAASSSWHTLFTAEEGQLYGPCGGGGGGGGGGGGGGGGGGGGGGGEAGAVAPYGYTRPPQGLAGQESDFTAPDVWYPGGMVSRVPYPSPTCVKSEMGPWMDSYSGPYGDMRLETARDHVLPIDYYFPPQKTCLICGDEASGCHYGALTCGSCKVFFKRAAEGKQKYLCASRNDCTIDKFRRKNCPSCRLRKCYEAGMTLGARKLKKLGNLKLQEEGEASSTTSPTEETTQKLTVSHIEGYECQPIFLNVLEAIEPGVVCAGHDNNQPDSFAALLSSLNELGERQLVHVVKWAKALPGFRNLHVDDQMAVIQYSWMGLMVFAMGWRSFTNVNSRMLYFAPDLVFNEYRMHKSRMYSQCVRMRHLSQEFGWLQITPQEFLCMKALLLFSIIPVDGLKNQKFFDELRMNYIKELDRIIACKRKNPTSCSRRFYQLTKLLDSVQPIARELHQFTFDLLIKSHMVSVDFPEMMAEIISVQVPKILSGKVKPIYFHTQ

Progesterone receptor = target: T4, Progesterone receptor (Homo sapiens, UniProt P06401); test: Inhibition of progesterone receptor
T4 sequence (P06401 whole entry): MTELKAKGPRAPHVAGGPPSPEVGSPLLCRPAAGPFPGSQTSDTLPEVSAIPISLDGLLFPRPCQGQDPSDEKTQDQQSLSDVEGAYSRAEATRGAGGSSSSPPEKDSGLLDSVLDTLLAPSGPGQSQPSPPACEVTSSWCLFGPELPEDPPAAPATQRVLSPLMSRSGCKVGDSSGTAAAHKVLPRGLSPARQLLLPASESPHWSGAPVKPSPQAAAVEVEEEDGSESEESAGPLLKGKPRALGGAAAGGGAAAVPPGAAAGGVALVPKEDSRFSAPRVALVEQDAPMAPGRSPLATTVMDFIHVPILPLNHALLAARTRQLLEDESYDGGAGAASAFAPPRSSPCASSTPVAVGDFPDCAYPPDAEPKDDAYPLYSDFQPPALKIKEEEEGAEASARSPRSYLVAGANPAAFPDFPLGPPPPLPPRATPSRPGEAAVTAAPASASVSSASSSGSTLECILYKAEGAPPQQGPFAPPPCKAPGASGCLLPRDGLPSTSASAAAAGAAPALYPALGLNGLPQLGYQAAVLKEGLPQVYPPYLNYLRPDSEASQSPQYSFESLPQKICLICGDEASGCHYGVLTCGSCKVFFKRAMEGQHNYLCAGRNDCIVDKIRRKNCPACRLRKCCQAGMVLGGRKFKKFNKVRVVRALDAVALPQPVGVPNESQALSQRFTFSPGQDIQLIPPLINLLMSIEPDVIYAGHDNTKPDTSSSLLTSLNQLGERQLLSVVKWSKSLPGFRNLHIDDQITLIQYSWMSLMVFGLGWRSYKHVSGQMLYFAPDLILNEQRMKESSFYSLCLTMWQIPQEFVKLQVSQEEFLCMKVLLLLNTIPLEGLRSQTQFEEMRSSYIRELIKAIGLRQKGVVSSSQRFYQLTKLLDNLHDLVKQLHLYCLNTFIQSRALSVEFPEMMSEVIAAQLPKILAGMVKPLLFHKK

Estrogen receptor = target: T5, Estrogen receptor (Homo sapiens, UniProt P03372); test: Inhibition of estrogen receptor
T5 sequence (P03372 whole entry): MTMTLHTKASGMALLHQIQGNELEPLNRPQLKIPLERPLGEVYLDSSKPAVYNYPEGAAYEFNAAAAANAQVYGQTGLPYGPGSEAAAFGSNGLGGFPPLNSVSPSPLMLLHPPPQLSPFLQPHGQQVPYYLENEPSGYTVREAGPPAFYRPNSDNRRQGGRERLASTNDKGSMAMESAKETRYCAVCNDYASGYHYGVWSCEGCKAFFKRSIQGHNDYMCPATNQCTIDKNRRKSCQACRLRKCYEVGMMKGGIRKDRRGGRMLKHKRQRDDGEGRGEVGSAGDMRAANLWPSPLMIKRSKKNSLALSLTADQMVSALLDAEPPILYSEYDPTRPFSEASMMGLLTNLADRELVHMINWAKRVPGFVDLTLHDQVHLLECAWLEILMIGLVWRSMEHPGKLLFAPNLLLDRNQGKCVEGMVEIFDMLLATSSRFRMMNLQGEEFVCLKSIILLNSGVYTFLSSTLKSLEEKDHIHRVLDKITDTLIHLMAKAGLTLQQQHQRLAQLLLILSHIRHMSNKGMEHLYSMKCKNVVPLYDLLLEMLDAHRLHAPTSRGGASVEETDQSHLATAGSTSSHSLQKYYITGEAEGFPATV

[3] = Clearance in Sprague-Dawley rat at 2 mg/kg, iv by LC/MS/MS analysis; type: ADME, organism-based; design: dose 2 mg/kg, route intravenous; settings: in vivo
[4] = (§1) Half life in Sprague-Dawley rat at 2 mg/kg, iv by LC/MS/MS analysis; type: ADME, organism-based; design: dose 2 mg/kg, route intravenous; settings: Sprague-Dawley, in vivo
[5] = Volume of distribution at steady state in Sprague-Dawley rat at 2 mg/kg, iv by LC/MS/MS analysis; type: ADME, organism-based; design: dose 2 mg/kg, route intravenous; settings: in vivo, read-out: Vdss
Rattus norvegicus = test: as §1; type: ADME, organism-based; design: dose 2 mg/kg, route intravenous; settings: in vivo

SMILES | IC50 [1] | IC50 [2] | other results
COC(=O)C1=C(C)NC(C)=C(C#N)[C@H]1c1ccnc2ccccc12 | 77 nM | 7730 nM | –
COC(=O)C1=C(CCl)NC(C)=C(C#N)[C@H]1c1ccc(F)cc1Cl | 41 nM | 2070 nM | –
COC(=O)C1=C(CCl)NC(C)=C(C#N)[C@@H]1c1ccc(F)cc1Cl | 2200 nM | 570 nM | –
COC(=O)[C@@H]1CC2=CC(=O)CC[C@]2(C)[C@@]23O[C@@H]2C[C@@]2(C)[C@@H](CC[C@@]24CCC(=O)O4)[C@H]13 [EPLERENONE] | – | > 5000 nM | –
CCCC1=C(C(=O)OCC)[C@@H](c2ccnc3ccccc23)C(C#N)=C(C)N1 | 3280 nM | 1330 nM | –
COC(=O)C1=C(CCl)NC(C)=C(C#N)[C@H]1c1ccnc2ccccc12 | 340 nM | 7930 nM | –
COC(=O)C1=C(C)NC(C)=C(C(=O)OC(C)(C)C)[C@@H]1c1cccc([N+](=O)[O-])c1 | 46 nM | 607 nM | IC50 (Glucocorticoid receptor): 3260 nM; IC50 (Androgen receptor): 1270 nM; IC50 (Progesterone receptor): 768 nM
COC(=O)C1=C(C)NC(C)=C(C#N)[C@@H]1c1ccnc2ccccc12 | 469 nM | 14570 nM | –
COC(=O)C1=C(CCl)NC(C)=C(C#N)[C@@H]1c1ccnc2ccccc12 | 2800 nM | 11270 nM | –
CC1=C(C#N)C(c2ccc(F)cc2Cl)C(C(=O)OC(C)(C)C)=C(C)N1 (racemic) | 59 nM | > 1550 nM | –
CCCC1=C(C(=O)OCC)[C@H](c2ccnc3ccccc23)C(C#N)=C(C)N1 | 10 nM | 2200 nM | IC50 (Glucocorticoid receptor): 270 nM; IC50 (Androgen receptor): 730 nM; IC50 (Progesterone receptor): 1340 nM; IC50 (Estrogen receptor): > 10000 nM; clearance [3]: 9.7 mL/min/kg; half-life [4]: 6.54 h; Vd [5]: 0.42 L/kg
COC(=O)C1=C(C)NC(C)=C(C(=O)OC(C)(C)C)C1c1cccc([N+](=O)[O-])c1 (racemic) [MEBUDIPINE] | 126 nM | > 20 nM | –
CC1=C(C#N)[C@H](c2ccc(F)cc2Cl)C(C(=O)OC(C)(C)C)=C(C)N1 | 3520 nM | 3840 nM | –
CCCC1=C(C(=O)OCC)C(c2ccnc3ccccc23)C(C#N)=C(C)N1 (racemic) | 31 nM | 1100 nM | –
COC(=O)C1=C(C)NC(C)=C(C(=O)OC(C)(C)C)[C@H]1c1cccc([N+](=O)[O-])c1 | 536 nM | > 0.5 nM | –
CC1=C(C#N)[C@@H](c2ccc(F)cc2Cl)C(C(=O)OC(C)(C)C)=C(C)N1 | 3.7 nM | – | IC50 (Glucocorticoid receptor): 1370 nM; IC50 (Androgen receptor): 246 nM; IC50 (Progesterone receptor): 3520 nM; IC50 (Estrogen receptor): > 10000 nM; t1/2 (Rattus norvegicus): 1.14 h
